According to PubChem BioAssay (NCI):
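Five compound concentrations were applied to cells in 96-well plates for 48 hours; endpoints were derived by simple linear interpolation of the resulting dose-response curve. TGI is the concentration that stops growth completely.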

These compounds were tested on MOLT-4 leukemia (assay: growth of human tumour cells (NCI), 48 h).
CCOC(=O)c1csc(CCCCCCc2nc(C(=O)OCC)cs2)n1 was tested, and the TGI was > 100 µM.
CN(C)c1[se]nc2c1c(=O)n(C)c(=O)n2C was tested, and the TGI was > 100 µM.

The compounds below were run on NCI-H226 lung (assay: growth of human tumour cells (NCI), 48 h).
In the case of CC1=C(C(=O)Nc2ccc([N+](=O)[O-])cc2)C(c2cccc([N+](=O)[O-])c2)C(C(=O)Nc2ccc([N+](=O)[O-])cc2)=C(C)N1, the TGI is reported as > 100 µM.
Compound CCOC(=O)c1csc(CCCCCCc2nc(C(=O)OCC)cs2)n1 has a TGI of 97.5 µM.
With CN(C)c1[se]nc2c1c(=O)n(C)c(=O)n2C the TGI was > 100 µM.

Each compound was assayed on NCI-H23 lung (assay: growth of human tumour cells (NCI), 48 h).
In the case of CC1=C(C(=O)Nc2ccc([N+](=O)[O-])cc2)C(c2cccc([N+](=O)[O-])c2)C(C(=O)Nc2ccc([N+](=O)[O-])cc2)=C(C)N1, the TGI is reported as 66.4 µM.
With COc1ccc2c(c1)C1C(CO2)C(c2ccccc2)=NN1c1ccccc1 (stereo unspecified) the TGI was > 100 µM.
With CCOC(=O)c1csc(CCCCCCc2nc(C(=O)OCC)cs2)n1 the TGI was 99.7 µM.
Sc1ccccc1S was tested, and the TGI was > 100 µM.
With CN(C)c1[se]nc2c1c(=O)n(C)c(=O)n2C the TGI was > 100 µM.

The compounds below were run on NCI-H460 lung (assay: growth of human tumour cells (NCI), 48 h).
In the case of CC1=C(C(=O)Nc2ccc([N+](=O)[O-])cc2)C(c2cccc([N+](=O)[O-])c2)C(C(=O)Nc2ccc([N+](=O)[O-])cc2)=C(C)N1, the TGI is reported as > 100 µM.
For COc1ccc2c(c1)C1C(CO2)C(c2ccccc2)=NN1c1ccccc1 (stereo unspecified), the TGI was > 100 µM.
With CCOC(=O)c1csc(CCCCCCc2nc(C(=O)OCC)cs2)n1 the TGI was > 57.7 µM.
In the case of Sc1ccccc1S, the TGI is reported as > 100 µM.
For CN(C)c1[se]nc2c1c(=O)n(C)c(=O)n2C, the TGI was > 100 µM.

These compounds were tested on NCI-H522 lung (assay: growth of human tumour cells (NCI), 48 h).
In the case of CC1=C(C(=O)Nc2ccc([N+](=O)[O-])cc2)C(c2cccc([N+](=O)[O-])c2)C(C(=O)Nc2ccc([N+](=O)[O-])cc2)=C(C)N1, the TGI is reported as > 100 µM.
In the case of COc1ccc2c(c1)C1C(CO2)C(c2ccccc2)=NN1c1ccccc1 (stereo unspecified), the TGI is reported as > 100 µM.
With CCOC(=O)c1csc(CCCCCCc2nc(C(=O)OCC)cs2)n1 the TGI was > 100 µM.
In the case of CN(C)c1[se]nc2c1c(=O)n(C)c(=O)n2C, the TGI is reported as > 100 µM.

What follows are compounds tested on OVCAR-3 ovarian (assay: growth of human tumour cells (NCI), 48 h).
In the case of CC1=C(C(=O)Nc2ccc([N+](=O)[O-])cc2)C(c2cccc([N+](=O)[O-])c2)C(C(=O)Nc2ccc([N+](=O)[O-])cc2)=C(C)N1, the TGI is reported as > 100 µM.
COc1ccc2c(c1)C1C(CO2)C(c2ccccc2)=NN1c1ccccc1 (stereo unspecified) was tested, and the TGI was > 100 µM.
In the case of CCOC(=O)c1csc(CCCCCCc2nc(C(=O)OCC)cs2)n1, the TGI is reported as > 100 µM.
Sc1ccccc1S was tested, and the TGI was > 100 µM.
CN(C)c1[se]nc2c1c(=O)n(C)c(=O)n2C was tested, and the TGI was > 100 µM.

What follows are compounds tested on OVCAR-4 ovarian (assay: growth of human tumour cells (NCI), 48 h).
For CC1=C(C(=O)Nc2ccc([N+](=O)[O-])cc2)C(c2cccc([N+](=O)[O-])c2)C(C(=O)Nc2ccc([N+](=O)[O-])cc2)=C(C)N1, the TGI was > 100 µM.
In the case of CCOC(=O)c1csc(CCCCCCc2nc(C(=O)OCC)cs2)n1, the TGI is reported as > 100 µM.
Sc1ccccc1S was tested, and the TGI was > 100 µM.
With CN(C)c1[se]nc2c1c(=O)n(C)c(=O)n2C the TGI was > 100 µM.

What follows are compounds tested on OVCAR-5 ovarian (assay: growth of human tumour cells (NCI), 48 h).
For CC1=C(C(=O)Nc2ccc([N+](=O)[O-])cc2)C(c2cccc([N+](=O)[O-])c2)C(C(=O)Nc2ccc([N+](=O)[O-])cc2)=C(C)N1, the TGI was > 100 µM.
COc1ccc2c(c1)C1C(CO2)C(c2ccccc2)=NN1c1ccccc1 (stereo unspecified) was tested, and the TGI was > 100 µM.
For CCOC(=O)c1csc(CCCCCCc2nc(C(=O)OCC)cs2)n1, the TGI was > 100 µM.
In the case of CN(C)c1[se]nc2c1c(=O)n(C)c(=O)n2C, the TGI is reported as > 100 µM.

What follows are compounds tested on OVCAR-8 ovarian (assay: growth of human tumour cells (NCI), 48 h).
With CC1=C(C(=O)Nc2ccc([N+](=O)[O-])cc2)C(c2cccc([N+](=O)[O-])c2)C(C(=O)Nc2ccc([N+](=O)[O-])cc2)=C(C)N1 the TGI was > 100 µM.
In the case of COc1ccc2c(c1)C1C(CO2)C(c2ccccc2)=NN1c1ccccc1 (stereo unspecified), the TGI is reported as > 100 µM.
CCOC(=O)c1csc(CCCCCCc2nc(C(=O)OCC)cs2)n1 was tested, and the TGI was > 87.2 µM.
Sc1ccccc1S was tested, and the TGI was > 10 µM.
In the case of CN(C)c1[se]nc2c1c(=O)n(C)c(=O)n2C, the TGI is reported as > 100 µM.

What follows are compounds tested on RPMI-8226 leukemia (assay: growth of human tumour cells (NCI), 48 h).
With CC1=C(C(=O)Nc2ccc([N+](=O)[O-])cc2)C(c2cccc([N+](=O)[O-])c2)C(C(=O)Nc2ccc([N+](=O)[O-])cc2)=C(C)N1 the TGI was > 100 µM.
For COc1ccc2c(c1)C1C(CO2)C(c2ccccc2)=NN1c1ccccc1 (stereo unspecified), the TGI was > 100 µM.
With CCOC(=O)c1csc(CCCCCCc2nc(C(=O)OCC)cs2)n1 the TGI was > 69.2 µM.
For CN(C)c1[se]nc2c1c(=O)n(C)c(=O)n2C, the TGI was > 100 µM.

The compounds below were run on RXF 393 renal (assay: growth of human tumour cells (NCI), 48 h).
In the case of CC1=C(C(=O)Nc2ccc([N+](=O)[O-])cc2)C(c2cccc([N+](=O)[O-])c2)C(C(=O)Nc2ccc([N+](=O)[O-])cc2)=C(C)N1, the TGI is reported as > 100 µM.
With COc1ccc2c(c1)C1C(CO2)C(c2ccccc2)=NN1c1ccccc1 (stereo unspecified) the TGI was > 100 µM.
With CCOC(=O)c1csc(CCCCCCc2nc(C(=O)OCC)cs2)n1 the TGI was 64 µM.
In the case of Sc1ccccc1S, the TGI is reported as > 100 µM.

These compounds were tested on RXF-631 renal (assay: growth of human tumour cells (NCI), 48 h).
With CC1=C(C(=O)Nc2ccc([N+](=O)[O-])cc2)C(c2cccc([N+](=O)[O-])c2)C(C(=O)Nc2ccc([N+](=O)[O-])cc2)=C(C)N1 the TGI was > 100 µM.
In the case of COc1ccc2c(c1)C1C(CO2)C(c2ccccc2)=NN1c1ccccc1 (stereo unspecified), the TGI is reported as > 100 µM.
With CCOC(=O)c1csc(CCCCCCc2nc(C(=O)OCC)cs2)n1 the TGI was > 100 µM.
Sc1ccccc1S was tested, and the TGI was > 100 µM.
In the case of CN(C)c1[se]nc2c1c(=O)n(C)c(=O)n2C, the TGI is reported as > 100 µM.

What follows are compounds tested on SF-268 CNS (assay: growth of human tumour cells (NCI), 48 h).
CC1=C(C(=O)Nc2ccc([N+](=O)[O-])cc2)C(c2cccc([N+](=O)[O-])c2)C(C(=O)Nc2ccc([N+](=O)[O-])cc2)=C(C)N1 was tested, and the TGI was > 100 µM.
For COc1ccc2c(c1)C1C(CO2)C(c2ccccc2)=NN1c1ccccc1 (stereo unspecified), the TGI was > 100 µM.
With CCOC(=O)c1csc(CCCCCCc2nc(C(=O)OCC)cs2)n1 the TGI was > 100 µM.
For Sc1ccccc1S, the TGI was > 100 µM.
For CN(C)c1[se]nc2c1c(=O)n(C)c(=O)n2C, the TGI was > 100 µM.

The compounds below were run on SF-295 CNS (assay: growth of human tumour cells (NCI), 48 h).
For CC1=C(C(=O)Nc2ccc([N+](=O)[O-])cc2)C(c2cccc([N+](=O)[O-])c2)C(C(=O)Nc2ccc([N+](=O)[O-])cc2)=C(C)N1, the TGI was > 100 µM.
For COc1ccc2c(c1)C1C(CO2)C(c2ccccc2)=NN1c1ccccc1 (stereo unspecified), the TGI was > 100 µM.
In the case of CCOC(=O)c1csc(CCCCCCc2nc(C(=O)OCC)cs2)n1, the TGI is reported as > 100 µM.
In the case of Sc1ccccc1S, the TGI is reported as > 100 µM.
For CN(C)c1[se]nc2c1c(=O)n(C)c(=O)n2C, the TGI was > 100 µM.

These compounds were tested on SF-539 CNS (assay: growth of human tumour cells (NCI), 48 h).
CC1=C(C(=O)Nc2ccc([N+](=O)[O-])cc2)C(c2cccc([N+](=O)[O-])c2)C(C(=O)Nc2ccc([N+](=O)[O-])cc2)=C(C)N1 was tested, and the TGI was > 100 µM.
COc1ccc2c(c1)C1C(CO2)C(c2ccccc2)=NN1c1ccccc1 (stereo unspecified) was tested, and the TGI was > 100 µM.
With CCOC(=O)c1csc(CCCCCCc2nc(C(=O)OCC)cs2)n1 the TGI was > 88 µM.
For CN(C)c1[se]nc2c1c(=O)n(C)c(=O)n2C, the TGI was > 100 µM.

Each compound was assayed on SK-MEL-2 melanoma (assay: growth of human tumour cells (NCI), 48 h).
In the case of CC1=C(C(=O)Nc2ccc([N+](=O)[O-])cc2)C(c2cccc([N+](=O)[O-])c2)C(C(=O)Nc2ccc([N+](=O)[O-])cc2)=C(C)N1, the TGI is reported as > 100 µM.
For COc1ccc2c(c1)C1C(CO2)C(c2ccccc2)=NN1c1ccccc1 (stereo unspecified), the TGI was > 100 µM.
